Experimental data reported in paper PMC7815716, “Mechanistic basis of breast cancer resistance protein inhibition by new indeno[1,2-b]indoles” (Scientific Reports, 2021).
Like-named read-outs stand apart in the source and are kept apart here.

Experiments:
ABCG2 [1] = target: T1, ABCG2 (Homo sapiens, UniProt Q9UNQ0); assay: ABCG2 ATPase activity, High-Five insect cell total membranes; format: biochemical; design: expressed in transfected cells
T1 sequence (Q9UNQ0 1-655): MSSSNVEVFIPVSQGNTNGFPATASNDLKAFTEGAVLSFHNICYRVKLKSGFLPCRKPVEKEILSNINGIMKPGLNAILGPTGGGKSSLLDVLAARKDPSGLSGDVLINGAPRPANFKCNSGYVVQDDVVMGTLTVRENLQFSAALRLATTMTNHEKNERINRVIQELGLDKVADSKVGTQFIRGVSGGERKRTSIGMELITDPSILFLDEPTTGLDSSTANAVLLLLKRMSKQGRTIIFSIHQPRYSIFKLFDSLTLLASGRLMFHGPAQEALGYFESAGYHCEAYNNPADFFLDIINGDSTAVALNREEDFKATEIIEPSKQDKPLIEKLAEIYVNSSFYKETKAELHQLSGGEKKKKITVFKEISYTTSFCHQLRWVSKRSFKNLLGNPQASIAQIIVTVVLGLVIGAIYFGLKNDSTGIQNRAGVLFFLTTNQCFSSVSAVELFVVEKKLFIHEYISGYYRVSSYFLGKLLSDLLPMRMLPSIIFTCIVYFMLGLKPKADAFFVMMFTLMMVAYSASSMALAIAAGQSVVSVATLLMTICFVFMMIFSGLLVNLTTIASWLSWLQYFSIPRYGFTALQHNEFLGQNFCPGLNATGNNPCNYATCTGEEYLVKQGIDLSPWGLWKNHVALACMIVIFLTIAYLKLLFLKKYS
Description: The ATPase assay was carried out as previously described. High-Five insect cell total membranes overexpressing ABCG2 were used at a concentration of 5 µg protein/tube in a final volume of 100 µL. The membranes were incubated in assay buffer containing 50 mM Tris–HCl, pH 6.8, 150 mM N-methyl-D-glucamine (NMDG)-Cl, 5 mM sodium azide, 1 mM EGTA, 1 mM ouabain, 2 mM DTT, and 10 mM MgCl2, in the presence or absence of sodium orthovanadate (0.3 mM). The protein-buffer mix was treated with the compounds at increasing concentrations (0.001–5 µM) and incubated for 20 min at 37 °C in the presence of ATP (5 mM). The reaction was stopped with the addition of 100 µL of 5% SDS, for color development was added 400 µL of Pi solution (sulfuric acid 36.2 N, water, ammonium molybdate and antimony potassium tartrate) and 200 µL of 1% ascorbic acid. The absorbance was measured after 10 min at 880 nm using a spectrophotometer Ultrospec 3100 pro (Amersham Biosciences).
Table S2. Effect of indeno[1,2-b]indole derivatives on the ATPase activity of ABCG2.The vanadate-sensitive ATPase activity of ABCG2 was measured using the total membranes of High-Five insect cells expressing this transporter as described previously [S5]. The EC50 (concentration required to achieve 50% stimulation) is given as the concentration ± SD (nM) of three independent experiments in duplicate.

[2] = system: HEK293 WT and HEK293-ABCG2 cells; assay: Intrinsic cytotoxicity of compounds, MTT assay; format: cell-based, human; conditions: HEK293-ABCG2 vs HEK293 WT, 72 h, 0.1–100 µM
Description: (§1) Cell viability was evaluated with a 3-(4,5-dimethylthiazol-2-yl)-2,5-diphenyltetrazolium bromide (MTT) colorimetric assay. HEK293 WT and HEK293-ABCG2 cells were seeded into 96-well culture plates at a 1.5 × 10^4 cells/well density. After overnight incubation, the cells were treated with various concentrations of compounds (0–100 µM) for 72 h at 37 °C under 5% CO2. […] Sensitization experiments were also carried out on H460 and H460MX20 cells. For these experiments, H460 and H460MX20 cells were seeded into 96-well culture plates at 1.0 × 10^4 cells/well density. […] After the treatment, the culture medium was removed and 100 μL of a 0.5 mg.mL^−1 MTT solution was added. Cells were then incubated for 4 h at 37 °C under 5% CO2. The formazan crystals were dissolved with a solution of DMSO/ethanol (1:1) and the absorbance was measured at 570 nm using a Multiscan FC microplate reader (Thermo Scientific). The results were expressed as percentage of viable cells versus control cells (0.1% DMSO, v/v) taken as 100%.

ABCG2 [3] = target: T1, ABCG2; assay: Inhibition of ABCG2-mediated mitoxantrone efflux (flow cytometry); format: cell-based; design: expressed in transfected cells; host or cells: HEK293; conditions: for inhibition at 30 min: human, probe mitoxantrone (10 µM), from IC50 fitted curves, HEK293-ABCG2, mitoxantrone, 100% = Ko143 0.5 µM, read-out: IMAX (%) ± SD, maximal inhibition percentage; for Class of inhibitor by IMAX (complete or partial): threshold at 80% on IMAX values
Description: ABCG2 inhibition assays were carried out on HEK293 WT and HEK293-ABCG2 cells. Cells were seeded at the density of 1 × 10^5 cells/well in 24 well culture plates and incubated for 48 h at 37 °C under 5% CO2. Cells were treated with compounds and 10 μM of mitoxantrone for 30 min at 37 °C and 5% CO2. After incubation the cells were washed with PBS, trypsinized and resuspended in ice cold PBS. The intracellular drug fluorescence was monitored with a FACS Calibur cytometer (Becton Dickinson) using the FL4 channel, with at least 10,000 events collected. The maximal fluorescence (taken as 100%) was determined with the difference between the mean fluorescence of HEK-ABCG2 cells incubated with 0.5 μM Ko143 (ABCG2 reference inhibitor) or by using the HEK293 WT cell line as a control and cells without inhibitor (mitoxantrone alone). The percent of inhibition was determined as previously described. For bimodulation assays the cells were concomitantly treated with 10 μM of one or two combined inhibitors under similar conditions as described previously. For washing assays, cells were treated with 10 μM concentrations of compounds for 30 min. Then, the medium with the inhibitor was removed and the cells were washed with PBS and incubated only with culture medium for different periods of time (0.5 and 3 h). After incubation, cells were exposed to 5 µM mitoxantrone for 30 min, and then analyzed by flow cytometry. The percentage of transport inhibition was calculated by the following equation: %Inhibition=C-S/I-S×100 where “C” corresponds to the intracellular fluorescence of cells in the presence of the tested compounds and substrate (mitoxantrone to ABCG2, Rhodamine 123 to ABCB1 and calcein to ABCC1), “S” corresponds to the intracellular fluorescence of cells in the presence of substrate alone, and “I” corresponds to the intracellular fluorescence of cells in the presence of the substrate and reference inhibitor (Ko143 to ABCG2, GF120918 to ABCB1 and verapamil to ABCC1).

H460MX20 cells = assay: Sensitization of lung cancer cells overexpressing ABCG2 to SN-38, MTT assay; format: cell-based, human; conditions: H460MX20, SN-38 10 nM, 72 h, IC50 value or 5 µM
Description: as §1

[4] = EC50 (nM ± SD) values of stimulation on the ATPase activity of ABCG2, vanadate-sensitive ATPase, High-Five insect cell total membranes
[5] = EC50 of stimulation of ABCG2 ATPase activity, approximate values

## COc1cc2c(cc1OC)-c1c(c3c(n1CCc1ccccc1)CC(C)CC3=O)C2=O (stereo not drawn) [5e, 2,3-Dimethoxy-7-methyl-5-phenethyl-5,6,7,8-tetrahydroindeno[1,2-b]indole-9,10-dione]
ABCG2 [1]; approximate values, read-out: EC50 of stimulation of ABCG2 ATPase activity
  EC50: ~170 nM
ABCG2 [1]; vanadate-sensitive ATPase, High-Five insect cell total membranes, read-out: EC50 (nM ± SD) values of stimulation on the ATPase activity of ABCG2
  EC50: 170 ± 11 nM
[2]
  Intrinsic cytotoxicity in ABCG2-transfected versus control cells (cross-resistance): no apparent cross-resistance
ABCG2 [3]; HEK293-ABCG2 cells, mitoxantrone 10 µM, 30 min, read-out: IC50 (µM) ± SD, inhibition of ABCG2-mediated mitoxantrone efflux
  IC50: 0.15 ± 0.08 µM
ABCG2 [3]; HEK293-ABCG2 cells
  inhibition at 30 min: 36.9 ± 1.16%
ABCG2 [3]
  Class of inhibitor by IMAX (complete or partial): partial (partial (IMAX ≤ 80% of ABCG2 inhibition))
H460MX20 cells
  Chemosensitization to SN-38: chemoresistance phenotype was fully reversed

## COc1ccccc1CCn1c2c(c3c(O)cc(C)cc31)C(=O)c1ccccc1-2 [6a, 9-Hydroxy-7-methyl-5-(2-methoxyphenethyl)-5H-indeno[1,2-b]indol-10(5H)-one]
ABCG2 [1]; [4]
  EC50: 2.9 ± 0.45 nM
ABCG2 [1]; [5]
  EC50: ~3 nM
[2]
  Intrinsic cytotoxicity in ABCG2-transfected versus control cells (cross-resistance): no apparent cross-resistance
ABCG2 [3]
  IC50: 0.21 ± 0.03 µM
  Class of inhibitor by IMAX (complete or partial): partial (partial (IMAX ≤ 80% of ABCG2 inhibition))
ABCG2 [3]; HEK293-ABCG2 cells
  inhibition at 30 min: 62.6 ± 2.3%
H460MX20 cells
  Chemosensitization to SN-38: chemoresistance phenotype was fully reversed

## COc1ccc2[nH]cc(CCn3c4c(c5c(O)cccc53)C(=O)c3ccccc3-4)c2c1 [6c, 9-Hydroxy-5-(2-(5-methoxy-1H-indol-3-yl)ethyl)indeno[1,2-b]indol-10(5H)-one]
ABCG2 [1]; [4]
  EC50: 4.4 ± 0.71 nM
ABCG2 [1]; [5]
  EC50: ~3 nM
[2]
  Intrinsic cytotoxicity in ABCG2-transfected versus control cells (cross-resistance): mild collateral sensitivity (CS) effect
ABCG2 [3]
  IC50: 0.48 ± 0.1 µM
ABCG2 [3]; HEK293-ABCG2 cells
  inhibition at 30 min: 90.5 ± 8.07%

## COc1cccc(CCn2c3c(c4c(O)cccc42)C(=O)c2ccc(O)cc2-3)c1 [6d, 3,9-Dihydroxy-5-(3-methoxyphenethyl)indeno[1,2-b]indol-10(5H)-one]
ABCG2 [1]; [4]
  EC50: 3.2 ± 0.44 nM
ABCG2 [1]; [5]
  EC50: ~3 nM
[2]
  Intrinsic cytotoxicity in ABCG2-transfected versus control cells (cross-resistance): mild collateral sensitivity (CS) effect
ABCG2 [3]
  IC50: 0.19 ± 0.04 µM
ABCG2 [3]; HEK293-ABCG2 cells
  inhibition at 30 min: 84.8 ± 2.51%
